Data from ChEMBL document CHEMBL4266006, “Synthesis and Evaluation of Aryl Quinolines as HIV-1 Integrase Multimerization Inhibitors” (ACS Med Chem Lett, 2018).

Molecular target: Human immunodeficiency virus type 1 integrase (Human immunodeficiency virus 1, UniProt Q7ZJM1)
Assay: Inhibition of N-terminal His/flag-tagged HIV1 integrase expressed in Escherichia coli BL21 (DE3) incubated for 2.5 hrs by HTRF assay
Details: not given; call rule not given here

Human immunodeficiency virus type 1 integrase, sequence (Q7ZJM1 whole entry): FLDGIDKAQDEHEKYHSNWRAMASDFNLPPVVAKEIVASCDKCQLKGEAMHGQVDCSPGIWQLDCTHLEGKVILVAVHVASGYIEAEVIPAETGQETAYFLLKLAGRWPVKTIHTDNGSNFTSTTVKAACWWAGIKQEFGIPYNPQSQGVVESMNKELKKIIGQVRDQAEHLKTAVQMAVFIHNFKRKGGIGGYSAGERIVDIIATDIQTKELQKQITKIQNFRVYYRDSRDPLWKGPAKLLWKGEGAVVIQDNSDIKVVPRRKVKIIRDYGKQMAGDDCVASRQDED

| EC50 | SMILES |
| --- | --- |
| Not Active | Cc1nc2ccccc2c(-c2cccs2)c1C(OC(C)(C)C)C(=O)O (configuration not stated) |
| Not Active | Cc1nc2ccccc2c(-c2ccc3c(c2)c2ccccc2n3-c2ccccc2)c1C(OC(C)(C)C)C(=O)O (configuration not stated) |
| Not Active | Cc1nc2ccccc2c(-c2cncnc2)c1C(OC(C)(C)C)C(=O)O (configuration not stated) |
| Not Active | Cc1nc2ccccc2c(-c2cccc(C#N)c2)c1C(OC(C)(C)C)C(=O)O (configuration not stated) |
| Not Active | Cc1nc2ccccc2c(-c2ccc(-c3ccccc3)cc2)c1C(OC(C)(C)C)C(=O)O (configuration not stated) |

Same assay, conditions: read-out: EC50

| EC50 [nM] | SMILES |
| --- | --- |
| 580 | Cc1nc2ccccc2c(-c2ccccc2F)c1C(OC(C)(C)C)C(=O)O (configuration not stated) |
| 2110 | Cc1nc2ccccc2c(-c2cccc(F)c2)c1C(OC(C)(C)C)C(=O)O (configuration not stated) |
| 1320 | Cc1nc2ccccc2c(-c2ccccc2)c1C(OC(C)(C)C)C(=O)O (configuration not stated) |
| 100 | Cc1nc2ccccc2c(-c2ccc(Cl)cc2)c1C(OC(C)(C)C)C(=O)O (configuration not stated) |
| 11100 | Cc1nc2ccccc2c(-c2ccccc2C#N)c1C(OC(C)(C)C)C(=O)O (configuration not stated) |
| 260 | Cc1nc2ccccc2c(-c2ccccc2Cl)c1C(OC(C)(C)C)C(=O)O (configuration not stated) |
| 3790 | Cc1nc2ccccc2c(-c2cccc(Cl)c2)c1C(OC(C)(C)C)C(=O)O (configuration not stated) |
| 4510 | CSc1ccccc1-c1c(C(OC(C)(C)C)C(=O)O)c(C)nc2ccccc12 (configuration not stated) |
| 490 | Cc1nc2ccccc2c(-c2ccc(F)cc2)c1C(OC(C)(C)C)C(=O)O (configuration not stated) |
| 510 | Cc1ccccc1-c1c(C(OC(C)(C)C)C(=O)O)c(C)nc2ccccc12 (configuration not stated) |
| 8390 | COc1ccccc1-c1c(C(OC(C)(C)C)C(=O)O)c(C)nc2ccccc12 (configuration not stated) |

Further lines, the compound ahead of its results:

| SMILES | EC50 [nM] |
| --- | --- |
| Cc1nc2ccc(Br)cc2c(-c2ccc(Cl)cc2)c1C(OC(C)(C)C)C(=O)O (configuration not stated) | 70 |
| Cc1nc2ccccc2c(-c2ccoc2)c1C(OC(C)(C)C)C(=O)O (configuration not stated) | 2210 |
| Cc1nc2ccccc2c(-c2ccc(C(F)(F)F)cc2)c1C(OC(C)(C)C)C(=O)O (configuration not stated) | 720 |
| Cc1ccc(-c2c(C(OC(C)(C)C)C(=O)O)c(C)nc3ccccc23)cc1 (configuration not stated) | 240 |
| Cc1nc2ccccc2c(-c2ccc(OC(F)(F)F)cc2)c1C(OC(C)(C)C)C(=O)O (configuration not stated) | 350 |
| Cc1nc2ccccc2c(-c2ccc(C#N)cc2)c1C(OC(C)(C)C)C(=O)O (configuration not stated) | 2970 |
| CC(=O)Nc1ccc(-c2c(C(OC(C)(C)C)C(=O)O)c(C)nc3ccccc23)cc1 (configuration not stated) | 8410 |
| CSc1ccc(-c2c(C(OC(C)(C)C)C(=O)O)c(C)nc3ccccc23)cc1 (configuration not stated) | 490 |
| Cc1nc2ccccc2c(-c2ccc3c(c2)CCCO3)c1C(OC(C)(C)C)C(=O)O (configuration not stated) | 27 |
| Cc1nc2ccccc2c(-c2ccc3c(c2)OCCO3)c1C(OC(C)(C)C)C(=O)O (configuration not stated) | 80 |
| Cc1cccc(-c2c(C(OC(C)(C)C)C(=O)O)c(C)nc3ccccc23)c1 (configuration not stated) | 950 |
| COc1ccc(-c2c(C(OC(C)(C)C)C(=O)O)c(C)nc3ccccc23)cc1OC (configuration not stated) | 3700 |
| COc1ccc(-c2c(C(OC(C)(C)C)C(=O)O)c(C)nc3ccccc23)cc1 (configuration not stated) | 230 |
| COc1cccc(-c2c(C(OC(C)(C)C)C(=O)O)c(C)nc3ccccc23)c1 (configuration not stated) | 1380 |
| CSc1cccc(-c2c(C(OC(C)(C)C)C(=O)O)c(C)nc3ccccc23)c1 (configuration not stated) | 1000 |
| CC(=O)c1ccc(-c2c(C(OC(C)(C)C)C(=O)O)c(C)nc3ccccc23)cc1 (configuration not stated) | 1390 |
